From patent US8802104B2, “Parathyroid hormone receptor activation and stem and progenitor cell expansion” (The General Hospital Corporation, priority 2002, dated 2014)

Columns and labels:
[1] = system: primary murine stromal cell cultures; experiment: Alkaline phosphatase staining of primary stromal cell cultures; assay type: cell-based, mouse; details: after 14 days, PTH vs vehicle, FIG. 5b
Method: LTC-IC assays were performed using wild-type stroma and hematopoietic cells. Rat PTH (1-34) (Bachem, Torrance, Calif.) or vehicle was added to each media change either during stroma establishment and/or during culture maintenance to a final concentration of 10^−7 M. Medium was changed every three days for two weeks or until stromal layers became confluent. For alkaline phosphatase staining, primary mononuclear cells obtained as described above from wild-type and or transgenic littermates were then cultured in 24-well plates at an initial concentration of 5×10^6 cells/ml. At 10 or 14 days after seeding, medium was suctioned off, and the adherent cells were gently rinsed twice in PBS. After fixation in 10% Neutral Formalin Buffer for 30 minutes at room temperature, alkaline phosphatase activity was determined histochemically by incubation for 45 minutes at RT with a mixture of 0.1 mg/ml naphthol AS-MX phosphate (Sigma), 0.5% N,N-dimethylformamide, 0.6 mg/ml red violet LB salt (Sigma) in 0.1 M Tris-HCl (pH 8.5). Alkaline phosphatase positive cells were counted at day 10 of culture, when the cultures were subconfluent and individual cells could be identified. For inhibition of γ-secretase activity, 30 μM of γ-secretase inhibitor II (Calbiochem) dissolved in DMSO was added to the long-term culture medium and LTC-IC assays were performed as described. […]

[2] = system: hematopoietic progenitors (CFU-C); experiment: In vivo PTH administration: CFU-C assay; parameters: species or system C57Bl/6 mice; details: four weeks PTH; P=0.780, FIG. 5g
Method: Mononuclear cells were isolated from the bone marrow and cultured at 10^4 cells/ml in the following medium: 0.9% methylcellulose, 15% FBS, 1% BSA, 10 μg/ml rh insulin, 200 μg/ml human transferrin, 10^−4 M 2-mercaptoethanol, 2 mM L-glutamine, 50 ng/ml rmSCF, 10 ng/ml rmIL-3, 10 ng/ml rhIL-6 and 3 units/ml rhEpo (M3434; Stem Cell Technologies, Vancouver, Canada). At day 10, the total number of colonies were counted and reported as total CFU-Cs.
For PTH administration, 6-8 week old wild type C57/B male mice were used. Rat PTH (1-34) (80 μg/Kg of body weight) was injected intraperitoneally 5×/week for 4 weeks (n=5). Control mice (n=4) were injected with an equivalent volume of vehicle. At the end of the treatment period, ionized serum calcium was measured by the Ciba/Corning 634 Ca^++/pH analyzer, and, after euthanasia, the hind limbs and forelimbs were dissected and utilized for cytologic and histologic analysis.
(§1) As treatment of stromal cells with PTH led to an increase in the ability of the stromal cell population to support hematopoietic stem cells, it was investigated whether these effects could be recapitulated in vivo. Wild-type C57Bl/6 mice were injected daily with PTH using an intermittent dosing schedule known to increase osteoblasts, and the frequencies of LTC-ICs in the bone marrow were measured. […]

[3] = system: HSCs (CD45.2+ cells in bone marrow); experiment: Competitive transplantation into secondary recipients; assay type: in vivo; details: donor mice PTH treated four weeks; read 6 weeks after transplant; P<0.05, FIG. 5f
Method: For the competitive transplant studies, 4×10^5 BM MNCs, obtained from CD45.1^+ B6.SJL (Jackson Laboratories, Bar Harbor, Me.) mice were mixed with 2×10^5 cells from mock injected or PTH injected CD45.2^+ C57Bl/6 mice. Recipient B6.SJL mice that had been lethally irradiated 24 hours previously with 10Gy of radiation (^137Cs source) were injected with cells. After 6 weeks, the mice were euthanized with CO2, the BM was removed and flushed with fully supplemented Iscove's Medium. The relative contribution of engraftment from the different cell sources was assessed by flow cytometry utilizing anti-CD45.1 and anti-CD45.2 antibodies (Pharmingen, San Diego, Calif.). To assess the effects of PTH administration post transplantation, recipient C57Bl/6 mice were lethally irradiated and then injected with 2×10^5 BM MNCs from a donor B6.SJL mouse. Twenty-four hours following the injection of the cells, mice were injected with PTH or mock injected as described above for four weeks.
as §1

peripheral blood cells = experiment: Complete blood count during cyclophosphamide chemotherapy cycles; assay type: in vivo, C57Bl/6 mice
Method: Wild-type C57Bl/6 mice were treated with 5 mg of cyclophosphamide (Day 1). The day following injection of cyclophosphamide, mice received no treatment or were treated for 8 days with G-CSF (5 μg/day), 11 days with PTH (80 μg/kg/day) or a combination of G-CSF plus PTH. Mice that received a combination of both G-CSF and PTH received G-CSF treatment for 8 days and PTH treatment for 11 days. Following this treatment protocol, mice were injected with cyclophosphamide on Day 15 and treated with G-CSF, PTH or G-CSF and PTH as described above. The treatment protocol was then repeated for two subsequent cycles, as outlined in FIG. 7.
During the course of the four treatment cycles, peripheral blood complete blood count (CBC) analysis was performed every 2 to 3 days. This analysis involved the collection of 100 μl of peripheral blood from the tail vein of the mice, which was subsequently analyzed on a HEMAVET 850FS (Drew Scientific). To avoid any deleterious effects from repeated tail bleeds, each individual mouse was only bled once per week.

Rat PTH (1-34)
alkaline phosphatase positive (osteoblastic) cells [1]: an increase in alkaline positive cells
level of hematopoietic progenitors by CFU-C assay [2]: did not affect
increase in HSCs, competitive transplantation [3]: > 2 fold
WBC and NE counts following chemotherapy, effect of adding PTH (peripheral blood cells; PTH 80 μg/kg/day 11 days added to G-CSF): not altered
hematological response to chemotherapy (peripheral blood cells; mice that did not receive G-CSF, PTH or not): no differences
